Assay results reported in the NIST ThermoML archive (doi:10.1016/j.jct.2015.08.010).
± gives the expanded uncertainty stated by the source.

Assay: xn = mol fraction of the nth substance listed
Conditions: 100 kPa, Liquid; for viscosity: Falling or rolling sphere viscometry; for mass density: Vibrating tube method

C1CCC2=NCCC[NH+]2CC1.c1c[n-]cn1 [1,8-diazabicyclo[5.4.0]undec-7-enium imidazolide] + O
viscosity (293.15 K, x1 = 0.0298): 2.845 ± 0.12 mPa·s | viscosity (293.15 K, x1 = 0.0698): 8.167 ± 0.24 mPa·s | viscosity (293.15 K, x1 = 0.0998): 14.13 ± 0.38 mPa·s | viscosity (293.15 K, x1 = 0.1875): 34.98 ± 0.8 mPa·s | viscosity (293.15 K, x1 = 0.2994): 60.57 ± 1.3 mPa·s | viscosity (293.15 K, x1 = 0.444): 72.41 ± 1.7 mPa·s | viscosity (293.15 K, x1 = 0.5989): 69.49 ± 1.7 mPa·s | viscosity (293.15 K, x1 = 0.7516): 63.94 ± 1.5 mPa·s | viscosity (293.15 K, x1 = 0.8728): 55.45 ± 1.3 mPa·s | viscosity (293.15 K, x1 = 1): 47.82 ± 1.2 mPa·s | mass density (293.15 K, x1 = 0.0298): 1026.99 ± 4.2 kg/m3 | mass density (293.15 K, x1 = 0.0698): 1048.57 ± 4.2 kg/m3 | mass density (293.15 K, x1 = 0.0998): 1057.33 ± 4.2 kg/m3 | mass density (293.15 K, x1 = 0.1875): 1067.15 ± 4.3 kg/m3 | mass density (293.15 K, x1 = 0.2994): 1067.1 ± 4.3 kg/m3 | mass density (293.15 K, x1 = 0.444): 1063.55 ± 4.3 kg/m3 | mass density (293.15 K, x1 = 0.5989): 1059.62 ± 4.3 kg/m3 | mass density (293.15 K, x1 = 0.7516): 1056.72 ± 4.3 kg/m3 | mass density (293.15 K, x1 = 0.8728): 1055.11 ± 4.3 kg/m3 | mass density (293.15 K, x1 = 1): 1053.63 ± 4.3 kg/m3 | viscosity (298.15 K, x1 = 0.0298): 2.428 ± 0.1 mPa·s | viscosity (298.15 K, x1 = 0.0698): 6.74 ± 0.19 mPa·s | viscosity (298.15 K, x1 = 0.0998): 11.17 ± 0.29 mPa·s | viscosity (298.15 K, x1 = 0.1875): 25.84 ± 0.59 mPa·s | viscosity (298.15 K, x1 = 0.2994): 42.65 ± 0.97 mPa·s | viscosity (298.15 K, x1 = 0.444): 51.28 ± 1.1 mPa·s | viscosity (298.15 K, x1 = 0.5989): 49.75 ± 1.2 mPa·s | viscosity (298.15 K, x1 = 0.7516): 44.98 ± 1.1 mPa·s | viscosity (298.15 K, x1 = 0.8728): 39.57 ± 0.95 mPa·s | viscosity (298.15 K, x1 = 1): 34.94 ± 0.85 mPa·s | mass density (298.15 K, x1 = 0.0298): 1024.52 ± 4.2 kg/m3 | mass density (298.15 K, x1 = 0.0698): 1045.19 ± 4.2 kg/m3 | mass density (298.15 K, x1 = 0.0998): 1053.65 ± 4.2 kg/m3 | mass density (298.15 K, x1 = 0.1875): 1063.22 ± 4.3 kg/m3 | mass density (298.15 K, x1 = 0.2994): 1063.15 ± 4.3 kg/m3 | mass density (298.15 K, x1 = 0.444): 1059.63 ± 4.2 kg/m3 | mass density (298.15 K, x1 = 0.5989): 1055.73 ± 4.2 kg/m3 | mass density (298.15 K, x1 = 0.7516): 1052.85 ± 4.2 kg/m3 | mass density (298.15 K, x1 = 0.8728): 1051.25 ± 4.3 kg/m3 | mass density (298.15 K, x1 = 1): 1049.78 ± 4.3 kg/m3 | viscosity (303.15 K, x1 = 0.0298): 2.096 ± 0.086 mPa·s | viscosity (303.15 K, x1 = 0.0698): 5.761 ± 0.16 mPa·s | viscosity (303.15 K, x1 = 0.0998): 9.019 ± 0.23 mPa·s | viscosity (303.15 K, x1 = 0.1875): 19.66 ± 0.45 mPa·s | viscosity (303.15 K, x1 = 0.2994): 30.99 ± 0.7 mPa·s | viscosity (303.15 K, x1 = 0.444): 37.8 ± 0.85 mPa·s | viscosity (303.15 K, x1 = 0.5989): 36.33 ± 0.84 mPa·s | viscosity (303.15 K, x1 = 0.7516): 32.9 ± 0.77 mPa·s | viscosity (303.15 K, x1 = 0.8728): 29.31 ± 0.69 mPa·s | viscosity (303.15 K, x1 = 1): 26.36 ± 0.64 mPa·s | mass density (303.15 K, x1 = 0.0298): 1021.91 ± 4.1 kg/m3 | mass density (303.15 K, x1 = 0.0698): 1041.75 ± 4.2 kg/m3 | mass density (303.15 K, x1 = 0.0998): 1050.01 ± 4.2 kg/m3 | mass density (303.15 K, x1 = 0.1875): 1059.26 ± 4.2 kg/m3 | mass density (303.15 K, x1 = 0.2994): 1059.2 ± 4.2 kg/m3 | mass density (303.15 K, x1 = 0.444): 1055.71 ± 4.2 kg/m3 | mass density (303.15 K, x1 = 0.5989): 1051.85 ± 4.2 kg/m3 | mass density (303.15 K, x1 = 0.7516): 1048.97 ± 4.2 kg/m3 | mass density (303.15 K, x1 = 0.8728): 1047.41 ± 4.2 kg/m3 | mass density (303.15 K, x1 = 1): 1045.94 ± 4.3 kg/m3 | viscosity (308.15 K, x1 = 0.0298): 1.835 ± 0.072 mPa·s | viscosity (308.15 K, x1 = 0.0698): 4.854 ± 0.13 mPa·s | viscosity (308.15 K, x1 = 0.0998): 7.406 ± 0.18 mPa·s | viscosity (308.15 K, x1 = 0.1875): 15.37 ± 0.35 mPa·s | viscosity (308.15 K, x1 = 0.2994): 23.32 ± 0.52 mPa·s | viscosity (308.15 K, x1 = 0.444): 28.37 ± 0.64 mPa·s | viscosity (308.15 K, x1 = 0.5989): 27.13 ± 0.62 mPa·s | viscosity (308.15 K, x1 = 0.7516): 24.83 ± 0.58 mPa·s | viscosity (308.15 K, x1 = 0.8728): 22.6 ± 0.53 mPa·s | viscosity (308.15 K, x1 = 1): 20.5 ± 0.49 mPa·s | mass density (308.15 K, x1 = 0.0298): 1019.17 ± 4.1 kg/m3 | mass density (308.15 K, x1 = 0.0698): 1038.24 ± 4.2 kg/m3 | mass density (308.15 K, x1 = 0.0998): 1046.13 ± 4.2 kg/m3 | mass density (308.15 K, x1 = 0.1875): 1055.28 ± 4.2 kg/m3 | mass density (308.15 K, x1 = 0.2994): 1055.23 ± 4.2 kg/m3 | mass density (308.15 K, x1 = 0.444): 1051.79 ± 4.2 kg/m3 | mass density (308.15 K, x1 = 0.5989): 1047.97 ± 4.2 kg/m3 | mass density (308.15 K, x1 = 0.7516): 1045.08 ± 4.2 kg/m3 | mass density (308.15 K, x1 = 0.8728): 1043.56 ± 4.2 kg/m3 | mass density (308.15 K, x1 = 1): 1042.11 ± 4.2 kg/m3 | viscosity (313.15 K, x1 = 0.0298): 1.614 ± 0.06 mPa·s | viscosity (313.15 K, x1 = 0.0698): 4.071 ± 0.11 mPa·s | viscosity (313.15 K, x1 = 0.0998): 6.217 ± 0.15 mPa·s | viscosity (313.15 K, x1 = 0.1875): 12.31 ± 0.28 mPa·s | viscosity (313.15 K, x1 = 0.2994): 18.12 ± 0.41 mPa·s | viscosity (313.15 K, x1 = 0.444): 21.76 ± 0.5 mPa·s | viscosity (313.15 K, x1 = 0.5989): 20.87 ± 0.48 mPa·s | viscosity (313.15 K, x1 = 0.7516): 19.33 ± 0.45 mPa·s | viscosity (313.15 K, x1 = 0.8728): 17.88 ± 0.42 mPa·s | viscosity (313.15 K, x1 = 1): 16.28 ± 0.39 mPa·s | mass density (313.15 K, x1 = 0.0298): 1016.33 ± 4.1 kg/m3 | mass density (313.15 K, x1 = 0.0698): 1034.66 ± 4.2 kg/m3 | mass density (313.15 K, x1 = 0.0998): 1042.33 ± 4.2 kg/m3 | mass density (313.15 K, x1 = 0.1875): 1051.28 ± 4.2 kg/m3 | mass density (313.15 K, x1 = 0.2994): 1051.26 ± 4.2 kg/m3 | mass density (313.15 K, x1 = 0.444): 1047.79 ± 4.2 kg/m3 | mass density (313.15 K, x1 = 0.5989): 1044.1 ± 4.2 kg/m3 | mass density (313.15 K, x1 = 0.7516): 1041.21 ± 4.2 kg/m3 | mass density (313.15 K, x1 = 0.8728): 1039.73 ± 4.2 kg/m3 | mass density (313.15 K, x1 = 1): 1038.28 ± 4.2 kg/m3
